The text below walks through data of ChEMBL document CHEMBL5653631, “A Potent and Selective ULK1 Inhibitor Suppresses Autophagy and Sensitizes Cancer Cells to Nutrient Stress” (iScience, 2018).

Molecules are shown by their SMILES.

The target in test [1] is Serine/threonine-protein kinase 25 (Homo sapiens) (UniProt O00506). Description: Inhibition of human recombinant YSK1 at 15 nM related to control ULK1.
Test [2] deals with Cyclin-dependent kinase 5 (Homo sapiens) (UniProt Q00535). Description: Inhibition of human recombinant CDK5 at 15 nM in presence of ATP by radiometric assay relative to control.
Sequence of Cyclin-dependent kinase 5 (Homo sapiens) (Q00535 whole entry, looked up): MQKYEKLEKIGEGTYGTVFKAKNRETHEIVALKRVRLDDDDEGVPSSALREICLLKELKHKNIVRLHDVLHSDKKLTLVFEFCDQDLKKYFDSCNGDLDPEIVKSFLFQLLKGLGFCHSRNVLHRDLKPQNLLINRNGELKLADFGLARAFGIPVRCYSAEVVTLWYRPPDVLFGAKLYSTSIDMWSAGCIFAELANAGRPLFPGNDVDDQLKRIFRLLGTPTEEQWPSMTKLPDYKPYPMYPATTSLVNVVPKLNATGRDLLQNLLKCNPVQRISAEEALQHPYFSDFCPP
For test [3], the target named is Serine/threonine-protein kinase 32A (Homo sapiens) (UniProt Q8WU08). As to the kind of experiment: Inhibition of human recombinant YANK1 at 15 nM related to control ULK1.
Sequence of Serine/threonine-protein kinase 32A (Homo sapiens) (Q8WU08 whole entry): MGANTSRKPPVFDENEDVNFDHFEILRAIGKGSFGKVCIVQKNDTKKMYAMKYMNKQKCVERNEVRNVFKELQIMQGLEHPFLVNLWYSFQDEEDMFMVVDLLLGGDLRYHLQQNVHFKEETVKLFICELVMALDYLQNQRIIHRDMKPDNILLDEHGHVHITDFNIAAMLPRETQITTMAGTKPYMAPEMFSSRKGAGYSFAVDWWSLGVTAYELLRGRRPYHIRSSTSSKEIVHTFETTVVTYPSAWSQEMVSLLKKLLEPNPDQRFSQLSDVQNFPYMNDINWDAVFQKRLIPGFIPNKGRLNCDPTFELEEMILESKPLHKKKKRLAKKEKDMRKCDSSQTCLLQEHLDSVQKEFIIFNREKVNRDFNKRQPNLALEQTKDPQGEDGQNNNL
Test [4] has as its target T1, cAMP-dependent protein kinase catalytic subunit PRKX (Homo sapiens) (UniProt P51817).
T1 sequence (whole entry): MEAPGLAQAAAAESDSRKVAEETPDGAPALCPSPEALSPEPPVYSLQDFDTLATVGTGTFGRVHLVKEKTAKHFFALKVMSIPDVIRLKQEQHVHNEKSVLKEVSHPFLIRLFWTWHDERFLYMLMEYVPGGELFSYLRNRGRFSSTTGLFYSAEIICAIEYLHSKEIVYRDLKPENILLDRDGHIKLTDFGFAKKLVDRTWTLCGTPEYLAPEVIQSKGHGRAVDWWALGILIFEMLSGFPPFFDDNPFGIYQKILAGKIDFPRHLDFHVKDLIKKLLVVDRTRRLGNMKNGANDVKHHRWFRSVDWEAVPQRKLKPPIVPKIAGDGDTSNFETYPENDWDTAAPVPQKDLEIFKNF
As to the kind of experiment: Inhibition of human recombinant PRKX at 40 nM related to control ULK1.

The target in test [5] is T2, Serine/threonine-protein kinase NLK (Homo sapiens) (UniProt Q9UBE8).
T2 sequence (whole entry): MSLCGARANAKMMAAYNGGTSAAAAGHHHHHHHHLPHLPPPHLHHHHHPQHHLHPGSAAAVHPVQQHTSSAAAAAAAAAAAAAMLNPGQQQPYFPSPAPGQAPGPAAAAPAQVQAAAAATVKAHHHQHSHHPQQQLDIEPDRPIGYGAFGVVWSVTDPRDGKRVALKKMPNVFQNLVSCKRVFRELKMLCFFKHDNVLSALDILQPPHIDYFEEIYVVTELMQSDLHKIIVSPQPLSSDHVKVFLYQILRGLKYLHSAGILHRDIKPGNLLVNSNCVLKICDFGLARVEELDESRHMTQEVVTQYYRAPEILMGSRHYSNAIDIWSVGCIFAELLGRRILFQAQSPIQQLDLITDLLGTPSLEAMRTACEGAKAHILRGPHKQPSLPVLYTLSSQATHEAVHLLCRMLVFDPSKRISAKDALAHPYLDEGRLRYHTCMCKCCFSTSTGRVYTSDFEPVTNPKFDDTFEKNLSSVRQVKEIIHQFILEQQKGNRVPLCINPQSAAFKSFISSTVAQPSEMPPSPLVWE
As to the kind of experiment: Inhibition of human recombinant NLK at 40 nM in presence of ATP by radiometric assay relative to control.

Test [6] has as its target T3, Protein kinase C zeta type (Homo sapiens) (UniProt Q05513).
T3 sequence (whole entry): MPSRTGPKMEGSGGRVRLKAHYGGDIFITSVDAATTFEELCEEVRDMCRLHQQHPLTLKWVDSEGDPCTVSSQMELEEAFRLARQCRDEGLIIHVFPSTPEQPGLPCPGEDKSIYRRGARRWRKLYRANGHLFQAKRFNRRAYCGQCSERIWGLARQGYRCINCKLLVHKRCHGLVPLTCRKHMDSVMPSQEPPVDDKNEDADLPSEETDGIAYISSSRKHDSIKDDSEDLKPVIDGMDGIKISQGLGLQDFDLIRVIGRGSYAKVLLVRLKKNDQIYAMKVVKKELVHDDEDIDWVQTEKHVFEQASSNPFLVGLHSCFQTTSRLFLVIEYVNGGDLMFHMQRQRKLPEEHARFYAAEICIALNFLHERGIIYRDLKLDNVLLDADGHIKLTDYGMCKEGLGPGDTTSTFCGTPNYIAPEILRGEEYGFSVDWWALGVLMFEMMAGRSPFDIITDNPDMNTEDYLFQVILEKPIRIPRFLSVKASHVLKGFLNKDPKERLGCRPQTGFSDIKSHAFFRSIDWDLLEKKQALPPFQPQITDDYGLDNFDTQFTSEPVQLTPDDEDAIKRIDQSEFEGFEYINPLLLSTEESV
Description: Inhibition of human recombinant PKCz at 40 nM in presence of ATP by radiometric assay relative to control.

Test [7] deals with Casein kinase II subunit alpha (Homo sapiens) (UniProt P68400). Description: Inhibition of human recombinant CK2a1 at 40 nM related to control ULK1.
Sequence of Casein kinase II subunit alpha (Homo sapiens) (P68400 whole entry, looked up): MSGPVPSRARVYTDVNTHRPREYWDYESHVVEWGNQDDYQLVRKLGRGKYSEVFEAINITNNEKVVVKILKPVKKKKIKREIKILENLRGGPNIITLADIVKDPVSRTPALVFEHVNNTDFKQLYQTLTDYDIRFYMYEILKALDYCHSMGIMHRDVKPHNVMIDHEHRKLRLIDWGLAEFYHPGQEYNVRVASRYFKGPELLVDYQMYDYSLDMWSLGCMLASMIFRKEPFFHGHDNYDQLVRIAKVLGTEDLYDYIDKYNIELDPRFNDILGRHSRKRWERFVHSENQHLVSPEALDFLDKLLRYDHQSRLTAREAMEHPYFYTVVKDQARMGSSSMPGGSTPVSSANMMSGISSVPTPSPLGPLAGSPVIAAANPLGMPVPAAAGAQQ
Test [8] has as its target T1, cAMP-dependent protein kinase catalytic subunit PRKX (Homo sapiens). As to the kind of experiment: Inhibition of human recombinant PRKX at 500 nM in presence of ATP by radiometric assay relative to control.
Test [9] deals with Transcription initiation factor TFIID subunit 1-like (Homo sapiens) (UniProt Q8IZX4). As to the kind of experiment: Inhibition of human recombinant TAF1L at 500 nM related to control ULK1.
Sequence of Transcription initiation factor TFIID subunit 1-like (Homo sapiens) (Q8IZX4 whole entry): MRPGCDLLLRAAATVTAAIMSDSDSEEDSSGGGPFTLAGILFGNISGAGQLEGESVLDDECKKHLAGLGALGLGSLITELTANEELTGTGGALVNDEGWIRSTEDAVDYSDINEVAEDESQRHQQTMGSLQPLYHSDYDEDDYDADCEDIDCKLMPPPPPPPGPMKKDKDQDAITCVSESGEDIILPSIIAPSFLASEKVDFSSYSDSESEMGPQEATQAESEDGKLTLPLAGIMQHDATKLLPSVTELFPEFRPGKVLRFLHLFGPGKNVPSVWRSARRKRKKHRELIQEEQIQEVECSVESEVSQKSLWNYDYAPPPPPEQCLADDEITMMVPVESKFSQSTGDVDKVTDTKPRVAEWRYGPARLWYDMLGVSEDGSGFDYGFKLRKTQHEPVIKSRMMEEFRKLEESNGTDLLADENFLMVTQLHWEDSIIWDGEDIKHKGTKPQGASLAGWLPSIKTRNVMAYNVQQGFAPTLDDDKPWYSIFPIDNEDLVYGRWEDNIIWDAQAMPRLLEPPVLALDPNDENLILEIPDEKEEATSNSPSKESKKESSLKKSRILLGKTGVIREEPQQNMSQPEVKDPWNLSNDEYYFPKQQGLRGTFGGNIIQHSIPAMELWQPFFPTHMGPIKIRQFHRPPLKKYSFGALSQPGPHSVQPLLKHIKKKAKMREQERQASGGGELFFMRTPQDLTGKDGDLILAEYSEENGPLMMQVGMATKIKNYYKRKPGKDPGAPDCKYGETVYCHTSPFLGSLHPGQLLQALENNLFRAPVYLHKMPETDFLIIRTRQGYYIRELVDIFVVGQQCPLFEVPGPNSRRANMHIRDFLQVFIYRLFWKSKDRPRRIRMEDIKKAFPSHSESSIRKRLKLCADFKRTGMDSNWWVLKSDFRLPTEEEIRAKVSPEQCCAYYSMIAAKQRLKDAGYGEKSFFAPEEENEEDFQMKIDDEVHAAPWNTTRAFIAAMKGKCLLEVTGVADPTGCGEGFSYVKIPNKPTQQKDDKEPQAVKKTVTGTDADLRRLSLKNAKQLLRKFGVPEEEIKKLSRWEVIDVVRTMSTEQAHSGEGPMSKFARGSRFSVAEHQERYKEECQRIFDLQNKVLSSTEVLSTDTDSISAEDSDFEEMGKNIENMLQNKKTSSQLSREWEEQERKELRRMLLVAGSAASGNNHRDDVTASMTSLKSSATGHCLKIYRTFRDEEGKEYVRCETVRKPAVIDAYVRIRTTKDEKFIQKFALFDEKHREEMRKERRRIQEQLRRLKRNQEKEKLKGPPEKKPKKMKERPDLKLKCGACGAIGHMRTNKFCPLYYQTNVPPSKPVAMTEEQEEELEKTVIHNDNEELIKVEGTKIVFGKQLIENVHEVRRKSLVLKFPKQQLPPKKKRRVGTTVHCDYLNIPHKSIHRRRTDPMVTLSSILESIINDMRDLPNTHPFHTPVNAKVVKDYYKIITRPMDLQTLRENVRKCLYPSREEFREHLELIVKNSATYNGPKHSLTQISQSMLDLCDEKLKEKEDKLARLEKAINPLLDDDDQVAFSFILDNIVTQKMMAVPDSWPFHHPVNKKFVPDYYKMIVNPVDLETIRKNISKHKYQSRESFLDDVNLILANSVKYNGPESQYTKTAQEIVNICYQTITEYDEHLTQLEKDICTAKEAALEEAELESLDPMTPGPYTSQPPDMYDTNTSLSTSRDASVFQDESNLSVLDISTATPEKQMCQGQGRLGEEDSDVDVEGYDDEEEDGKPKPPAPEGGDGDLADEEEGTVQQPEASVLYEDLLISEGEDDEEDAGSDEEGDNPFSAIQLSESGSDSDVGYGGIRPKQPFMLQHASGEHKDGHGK
Test [10] concerns the target Mast/stem cell growth factor receptor Kit (Homo sapiens) (UniProt P10721). As to the kind of experiment: Inhibition of human recombinant KIT at 500 nM related to control ULK1.

Sequence of Serine/threonine-protein kinase 25 (Homo sapiens) (O00506 whole entry, looked up): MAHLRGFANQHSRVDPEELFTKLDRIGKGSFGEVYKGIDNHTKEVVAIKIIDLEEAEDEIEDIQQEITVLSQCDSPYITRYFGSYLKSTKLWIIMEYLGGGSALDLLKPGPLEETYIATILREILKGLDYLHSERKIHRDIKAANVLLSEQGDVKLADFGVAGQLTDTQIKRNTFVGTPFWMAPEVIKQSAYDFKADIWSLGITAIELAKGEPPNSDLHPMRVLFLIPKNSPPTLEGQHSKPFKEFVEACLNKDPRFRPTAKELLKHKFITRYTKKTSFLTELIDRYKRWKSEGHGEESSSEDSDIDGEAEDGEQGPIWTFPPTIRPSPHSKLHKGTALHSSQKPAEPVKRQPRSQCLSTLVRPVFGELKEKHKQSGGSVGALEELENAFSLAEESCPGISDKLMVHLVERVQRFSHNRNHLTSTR
Sequence of Mast/stem cell growth factor receptor Kit (Homo sapiens) (P10721 whole entry): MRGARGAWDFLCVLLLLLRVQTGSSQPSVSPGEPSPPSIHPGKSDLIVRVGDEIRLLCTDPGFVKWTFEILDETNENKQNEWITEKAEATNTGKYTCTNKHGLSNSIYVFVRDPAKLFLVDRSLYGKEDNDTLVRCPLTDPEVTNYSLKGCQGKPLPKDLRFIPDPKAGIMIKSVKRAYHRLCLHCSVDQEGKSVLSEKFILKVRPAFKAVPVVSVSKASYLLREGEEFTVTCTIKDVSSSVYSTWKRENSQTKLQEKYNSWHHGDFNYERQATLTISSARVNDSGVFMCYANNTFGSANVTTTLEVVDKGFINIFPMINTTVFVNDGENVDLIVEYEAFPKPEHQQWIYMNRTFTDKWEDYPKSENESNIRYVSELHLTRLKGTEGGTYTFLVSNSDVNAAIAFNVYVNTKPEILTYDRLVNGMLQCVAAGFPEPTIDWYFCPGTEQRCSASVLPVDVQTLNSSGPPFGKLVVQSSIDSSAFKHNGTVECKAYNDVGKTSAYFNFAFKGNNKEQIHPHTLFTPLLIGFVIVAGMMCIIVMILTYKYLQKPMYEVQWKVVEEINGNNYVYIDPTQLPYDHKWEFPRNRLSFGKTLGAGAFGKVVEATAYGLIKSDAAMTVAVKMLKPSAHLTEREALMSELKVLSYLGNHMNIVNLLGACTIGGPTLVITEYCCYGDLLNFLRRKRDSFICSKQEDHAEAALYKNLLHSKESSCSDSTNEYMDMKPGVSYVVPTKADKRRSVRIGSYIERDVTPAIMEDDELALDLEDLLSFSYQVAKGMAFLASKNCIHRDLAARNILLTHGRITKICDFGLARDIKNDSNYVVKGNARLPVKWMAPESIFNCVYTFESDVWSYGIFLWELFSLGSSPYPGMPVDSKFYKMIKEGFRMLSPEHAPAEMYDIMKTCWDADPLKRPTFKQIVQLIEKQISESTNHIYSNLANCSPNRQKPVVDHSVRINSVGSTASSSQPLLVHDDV

In the case of `CC(C)[C@H](NC(=O)c1cc(-c2cnn3cc(-c4ccc(OCCN5CCCCC5)cc4)cnc23)cs1)C(F)(F)F`, the fold change (FC) in test [1] was 0; in [3] it was 0.02. The inhibition (in general, the drop in the measured response relative to a control, in per cent) in test [2] amounted to 23%.
`O=C(N[C@@H](C1CC1)C(F)(F)F)c1cc(-c2cnn3cc(-c4ccc(F)cc4)cnc23)cs1`: the results for the fold change (FC) in test [4] and in test [7] were 0.27 and 0.1, respectively. Moreover, the inhibition in [5] stood at 47%; in test [6], 0%.
Regarding `CNC(=O)c1ccccc1Oc1nc(Nc2cc(OC)c(OC)c(OC)c2)ncc1Br`, the inhibition in test [8] worked out at 16%. Moreover, the fold change (FC) in [9] was found to be 0; in [10], 0.01.
